The target in the assay is T1, ATM (Homo sapiens, UniProt Q13315).
T1 construct: detecting phosphorylation of Chk2 in a human non-small cell lung cancer cell line NCI-H460 (ATCC company); host or cells: NCI-H460 human non-small cell lung cancer cells
T1 sequence (Q13315 whole entry): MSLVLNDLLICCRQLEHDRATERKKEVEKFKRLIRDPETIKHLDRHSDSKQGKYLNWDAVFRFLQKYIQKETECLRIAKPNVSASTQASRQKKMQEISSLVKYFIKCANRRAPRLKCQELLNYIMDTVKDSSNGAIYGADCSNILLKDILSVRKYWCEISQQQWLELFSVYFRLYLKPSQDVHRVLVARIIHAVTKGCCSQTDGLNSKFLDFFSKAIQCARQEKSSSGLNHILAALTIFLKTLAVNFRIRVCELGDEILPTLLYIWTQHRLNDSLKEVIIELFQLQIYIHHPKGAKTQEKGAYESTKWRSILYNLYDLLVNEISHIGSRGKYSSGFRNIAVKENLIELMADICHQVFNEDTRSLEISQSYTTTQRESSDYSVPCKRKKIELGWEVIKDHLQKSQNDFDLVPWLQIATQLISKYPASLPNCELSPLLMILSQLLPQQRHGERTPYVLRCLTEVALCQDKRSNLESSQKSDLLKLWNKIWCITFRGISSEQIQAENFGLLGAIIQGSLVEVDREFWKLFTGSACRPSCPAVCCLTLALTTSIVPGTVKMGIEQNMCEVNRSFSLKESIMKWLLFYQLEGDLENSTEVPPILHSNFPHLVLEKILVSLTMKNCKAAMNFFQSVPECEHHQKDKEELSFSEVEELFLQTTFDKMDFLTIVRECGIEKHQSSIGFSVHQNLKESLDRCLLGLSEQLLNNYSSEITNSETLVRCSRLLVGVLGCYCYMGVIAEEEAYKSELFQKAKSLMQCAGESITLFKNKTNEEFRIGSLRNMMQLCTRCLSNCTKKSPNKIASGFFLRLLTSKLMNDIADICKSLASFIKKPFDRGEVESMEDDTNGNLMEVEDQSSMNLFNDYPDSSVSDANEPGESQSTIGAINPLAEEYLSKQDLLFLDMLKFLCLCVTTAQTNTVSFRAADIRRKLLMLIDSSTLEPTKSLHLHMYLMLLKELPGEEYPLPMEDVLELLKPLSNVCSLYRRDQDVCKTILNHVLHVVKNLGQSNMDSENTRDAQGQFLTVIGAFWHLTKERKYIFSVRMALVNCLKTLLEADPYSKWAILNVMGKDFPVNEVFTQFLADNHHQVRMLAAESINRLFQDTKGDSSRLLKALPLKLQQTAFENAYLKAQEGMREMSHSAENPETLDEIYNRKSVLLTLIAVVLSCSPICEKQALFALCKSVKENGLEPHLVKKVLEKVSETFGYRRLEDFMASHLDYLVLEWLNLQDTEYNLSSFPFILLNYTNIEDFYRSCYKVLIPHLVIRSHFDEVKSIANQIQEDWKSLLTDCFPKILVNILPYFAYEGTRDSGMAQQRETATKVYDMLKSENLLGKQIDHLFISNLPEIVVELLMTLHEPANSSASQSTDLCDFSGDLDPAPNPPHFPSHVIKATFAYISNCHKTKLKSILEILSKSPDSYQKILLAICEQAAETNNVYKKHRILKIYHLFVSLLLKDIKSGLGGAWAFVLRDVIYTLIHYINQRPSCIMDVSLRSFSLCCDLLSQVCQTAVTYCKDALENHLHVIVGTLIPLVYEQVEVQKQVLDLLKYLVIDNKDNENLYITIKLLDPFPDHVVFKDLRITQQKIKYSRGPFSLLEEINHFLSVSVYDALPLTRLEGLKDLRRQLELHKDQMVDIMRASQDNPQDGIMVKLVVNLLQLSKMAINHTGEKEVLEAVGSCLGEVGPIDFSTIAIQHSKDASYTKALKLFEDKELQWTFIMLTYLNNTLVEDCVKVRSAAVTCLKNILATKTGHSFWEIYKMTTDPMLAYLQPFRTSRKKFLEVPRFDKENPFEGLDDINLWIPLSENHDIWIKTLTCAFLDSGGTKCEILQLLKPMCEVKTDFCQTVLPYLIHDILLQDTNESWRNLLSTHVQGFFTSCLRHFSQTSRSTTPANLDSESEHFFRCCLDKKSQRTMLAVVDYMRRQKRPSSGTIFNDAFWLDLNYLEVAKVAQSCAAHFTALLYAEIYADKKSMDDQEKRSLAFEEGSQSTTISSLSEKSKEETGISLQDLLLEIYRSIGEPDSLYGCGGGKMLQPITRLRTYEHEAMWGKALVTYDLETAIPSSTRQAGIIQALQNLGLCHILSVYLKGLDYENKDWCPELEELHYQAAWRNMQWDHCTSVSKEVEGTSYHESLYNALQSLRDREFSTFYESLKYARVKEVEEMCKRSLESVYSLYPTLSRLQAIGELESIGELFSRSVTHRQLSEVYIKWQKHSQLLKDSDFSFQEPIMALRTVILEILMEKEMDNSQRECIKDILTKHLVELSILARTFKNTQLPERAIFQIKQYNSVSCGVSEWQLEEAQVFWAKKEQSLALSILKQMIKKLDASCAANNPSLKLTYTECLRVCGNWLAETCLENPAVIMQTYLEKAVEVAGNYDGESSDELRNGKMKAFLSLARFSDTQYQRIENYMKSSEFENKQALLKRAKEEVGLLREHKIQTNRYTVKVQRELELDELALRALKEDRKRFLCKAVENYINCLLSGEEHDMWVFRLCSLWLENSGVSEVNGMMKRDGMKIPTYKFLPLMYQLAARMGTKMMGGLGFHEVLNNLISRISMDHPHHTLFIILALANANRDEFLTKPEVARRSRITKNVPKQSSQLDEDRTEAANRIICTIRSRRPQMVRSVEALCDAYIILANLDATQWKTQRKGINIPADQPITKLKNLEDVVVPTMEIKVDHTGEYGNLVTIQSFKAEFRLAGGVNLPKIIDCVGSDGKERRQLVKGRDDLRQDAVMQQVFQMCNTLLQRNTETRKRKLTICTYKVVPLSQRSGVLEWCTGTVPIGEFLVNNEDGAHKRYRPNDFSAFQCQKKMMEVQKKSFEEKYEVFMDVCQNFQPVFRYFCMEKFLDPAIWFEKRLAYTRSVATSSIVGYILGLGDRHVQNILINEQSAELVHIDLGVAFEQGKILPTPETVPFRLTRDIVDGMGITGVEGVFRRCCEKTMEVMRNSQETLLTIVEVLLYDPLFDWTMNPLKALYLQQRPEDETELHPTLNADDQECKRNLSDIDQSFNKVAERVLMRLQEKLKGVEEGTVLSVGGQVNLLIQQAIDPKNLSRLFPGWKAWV
Description: ATM inhibition test (phosphorylation of Chk2 generated by ionizing radiation, AlphaScreen SureFire). It counts as cell-based. The note with it: phosphorylated Chk2 in NCI-H460 cells, ionizing radiation 8Gy, 1 hour after test compound treatment; read-out: ATM inhibitory activity. The method, then:
ATM inhibitory effects of a test compound were measured by detecting phosphorylation of Chk2 in a human non-small cell lung cancer cell line NCI-H460 (ATCC company). The level of phosphorylated Chk2 generated by an ionizing radiation was measured using AlphaScreen SureFire (TGR Biosciences).
The cells were seeded by 40000 cells per well in 96-well CellBIND® plates (Corning International Inc.), and incubated at 37° C. overnight in 5% CO2. […] 1 hour after a test compound treatment, half of the plates were irradiated with ionizing radiation 8Gy (Faxitron Bioptics, LLC, RX-650 type). The plates irradiated with ionizing radiation and the plates not being irradiated with ionizing radiation were incubated at 37° C. for 1 hour in 5% CO2. […] Subsequent operations were performed according to the instruction book of AlphaScreen SureFire. […] The inhibition ratio was calculated by the following equation. Inhibition ratio (%)=((signal of drug untreated wells in the plates irradiated with ionizing radiation−signal of drug treated wells in the plates irradiated with ionizing radiation)/(signal of drug untreated wells in the plates irradiated with ionizing radiation−signal of drug untreated wells in the plates not being irradiated with ionizing radiation))×100
A general note: Bead proximity is the source of the signal in Alpha formats.
As for `O=c1cc(N2CCOCC2)cc(-c2cccc3c2Oc2ccc(NC4CCN(Cc5ccc(C(F)(F)F)nc5)CC4)cc2C3)[nH]1` [Example 2-28-15, 4-Morpholino-6-(7-((1-((6-(trifluoromethyl)pyridin-3-yl)methyl)piperidin-4-yl)amino)-9H-xanthen-4-yl) pyridin-2(1H)-one], the IC50 lay in the range of 0.5 to 2 µM.
The value for `CNc1ccc(CN2CCC(Nc3ccc4c(c3)Cc3cccc(-c5cc(N6CCOCC6)cc(=O)[nH]5)c3O4)CC2)cn1` [Example 2-28-8, 6-(7-((1-((6-(Methylamino)pyridin-3-yl)methyl)piperidin-4-yl)amino)-9H-xanthen-4-yl)-4-morpholino pyridin-2(1H)-one] was 0.1 to 0.5 µM; that for `O=c1cc(N2CCOCC2)cc(-c2cc(F)cc3c2Oc2ccc(NCc4cccc(Cl)n4)cc2C3)[nH]1` [Example 2-48-2, 6-(7-(((6-Chloropyridin-2-yl)methyl)amino)-2-fluoro-9H-xanthen-4-yl)-4-morpholinopyridin-2(1H)-one] was 0.1 to 0.5 µM.
Under `Cn1cc(-c2cncc(CNc3ccc4c(c3)Sc3cccc(-c5cc(N6CCOCC6)cc(=O)[nH]5)c3S4)c2)cn1` [Example 1-12-22, 6-(7-(((5-(1-Methyl-1H-pyrazol-4-yl)pyridin-3-yl)methyl)amino)thianthren-1-yl)-4-morpholino pyridin-2 (1H)-one] stands 0.1 to 0.5 µM; under `O=c1cc(N2CCOCC2)cc(-c2cccc3c2Oc2ccc(NCc4cncc(Cl)c4)cc2S3)[nH]1` [Example 4-8-6, 6-(8-(((5-Chloropyridin-3-yl)methyl)amino)phenoxathiin-4-yl)-4-morpholino pyridin-2(1H)-one], 0.1 to 0.5 µM.
For `CCCCN1CCC(Nc2ccc3c(c2)Cc2cccc(-c4cc(N5CCOCC5)cc(=O)[nH]4)c2O3)C1` (centres unmarked) [Example 2-19-8, 6-(7-((1-Butylpyrrolidin-3-yl)amino)-9H-xanthen-4-yl)-4-morpholinopyridin-2(1H)-one], the IC50 lay in the range of 0.1 to 0.5 µM.
As to `CN1CCC(Nc2ccc3c(c2)Cc2cccc(-c4cc(N5CCOCC5)cc(=O)[nH]4)c2O3)CC1` [Example 2-3-7, 6-(7-((1-Methylpiperidin-4-yl)amino)-9H-xanthen-4-yl)-4-morpholino pyridin-2(1H)-one], the IC50 fell in the range of 0.5 to 2 µM.
The value for `O=c1cc(N2CCOCC2)cc(-c2cccc3c2Oc2ccc(NCc4cncc(C5CC5)c4)cc2S3)[nH]1` [Example 4-8-7, 6-(8-(((5-Cyclopropylpyridin-3-yl)methyl)amino)phenoxathiin-4-yl)-4-morpholino pyridin-2(1H)-one] was 0.1 to 0.5 µM.
Under `O=c1cc(N2CCOCC2)cc(-c2cccc3c2Sc2ccc(NC4CCN(CC(F)(F)F)CC4)cc2S3)[nH]1` [Example 1-25, 4-morpholino-6-(7-((1-(2,2,2-trifluoroethyl)piperidin-4-yl)amino)thianthren-1-yl)pyridin-2(1H)-one] stands 0.1 to 0.5 µM; under `CC(CN1CCC(Nc2ccc3c(c2)Cc2cccc(-c4cc(N5CCOCC5)cc(=O)[nH]4)c2O3)CC1)c1ccccc1` (centres unmarked) [Example 2-28-37, 4-Morpholino-6-(7-((1-(2-phenylpropyl)piperidin-4-yl)amino)-9H-xanthen-4-yl) pyridin-2(1H)-one], 0.1 to 0.5 µM; under `Cc1ccc(C(CO)Nc2ccc3c(c2)Sc2cccc(-c4cc(N5CCOCC5)cc(=O)[nH]4)c2S3)nc1` (centres unmarked) [Example 1-12-99, 6-(7-((2-Hydroxy-1-(5-methylpyridin-2-yl)ethyl)amino)thianthren-1-yl)-4-morpholino pyridin-2(1H)-one], 0.1 to 0.5 µM.
Under `O=c1cc(N2CCOCC2)cc(-c2cccc3c2Oc2ccc([N+](=O)[O-])cc2S3)[nH]1` [Example 4-1, 4-Morpholino-6-(8-nitrophenoxathiin-4-yl)pyridin-2(1H)-one] stands 0.5 to 2 µM.
Take `O=c1cc(N2CCOCC2)cc(-c2cccc3c2Oc2ccc(NC4CCCN(CCc5ccccc5)C4)cc2C3)[nH]1` (centres unmarked) [Example 2-19-3, 4-Morpholino-6-(7-((1-phenethylpiperidin-3-yl)amino)-9H-xanthen-4-yl)pyridin-2(1H)-one]: the IC50 was 0.5 to 2 µM.
The value for `COCc1cncc(CNc2ccc3c(c2)Cc2cccc(-c4cc(N5CCOCC5)cc(=O)[nH]4)c2O3)c1` [Example 2-2-33, 6-(7-(((5-(Methoxymethyl)pyridin-3-yl)methyl)amino)-9H-xanthen-4-yl)-4-morpholino pyridin-2(1H)-one] was 0.1 to 0.5 µM; that for `COc1ncc(C(C)Nc2ccc3c(c2)Cc2cccc(-c4cc(N5CCOCC5)cc(=O)[nH]4)c2O3)cn1` (centres unmarked) [Example 2-14-55, 6-(7-((1-(2-Methoxypyrimidin-5-yl)ethyl)amino)-9H-xanthen-4-yl)-4-morpholino pyridin-2 (1H)-one] was 0.1 to 0.5 µM; that for `Cc1nccc(CNc2ccc3c(c2)Cc2cccc(-c4cc(N5CCOCC5)cc(=O)[nH]4)c2O3)n1` [Example 2-14-68, 6-(7-(((2-Methylpyrimidin-4-yl)methyl)amino)-9H-xanthen-4-yl)-4-morpholino pyridin-2(1H)-one] was 0.5 to 2 µM.
As for `N#Cc1ccc(CNc2ccc3c(c2)Cc2cccc(-c4cc(N5CCOCC5)cc(=O)[nH]4)c2O3)s1` [Example 2-14-32, 6-(7-(((5-Isocycanothiophen-2-yl)methyl)amino)-9H-xanthen-4-yl)-4-morpholino pyridin-2(1H)-one], the IC50 was less than 0.1 µM.
The value for `CC(Nc1ccc2c(c1)Cc1cccc(-c3cc(N4CCOCC4)cc(=O)[nH]3)c1O2)C(=O)N1CCCC1` (centres unmarked) [Example 2-15, 4-Morpholino-6-(7-((1-oxo-1-(pyrrolidin-1-yl)propan-2-yl)amino)-9H-xanthen-4-yl)pyridin-2(1H)-one] was 0.1 to 0.5 µM; that for `CNc1ncccc1CNc1ccc2c(c1)Cc1cccc(-c3cc(N4CCOCC4)cc(=O)[nH]3)c1O2` [Example 2-2-26, 6-(7-(((2-(Methylamino)pyridin-3-yl)methyl)amino)-9H-xanthen-4-yl)-4-morpholino pyridin-2(1H)-one] was 0.1 to 0.5 µM; that for `COCC(CN1CCN(C)CC1)Nc1ccc2c(c1)Sc1cccc(-c3cc(N4CCOCC4)cc(=O)[nH]3)c1S2` (centres unmarked) [Example 1-17-3, 6-(7-((1-Methoxy-3-(4-methylpiperazin-1-yl)propan-2-yl)amino)thianthren-1-yl)-4-morpholinopyridin-2(1H)-one] was 0.1 to 0.5 µM.
The value for `CN(C)CCN1CCC(Nc2ccc3c(c2)Sc2cccc(-c4cc(N5CCOCC5)cc(=O)[nH]4)c2S3)CC1` [Example 1-29-2, 6-(7-((1-(2-(Dimethylamino)ethyl)piperidin-4-yl)amino)thianthren-1-yl)-4-morpholinopyridin-2(1H)-one] was 0.1 to 0.5 µM; that for `Cc1cccc(C(C)Nc2ccc3c(c2)Cc2cccc(-c4cc(N5CCOCC5)cc(=O)[nH]4)c2O3)n1` (single isomer, unassigned) [Example 2-14-85-1, 6-(7-((1-(6-methylpyridin-2-yl)ethyl)amino)-9H-xanthen-4-yl)-4-morpholinopyridin-2(1H)-one] was 0.1 to 0.5 µM; that for `CC(Nc1ccc2c(c1)Cc1cccc(-c3cc(N4CCOCC4)cc(=O)[nH]3)c1O2)c1cc(Cl)ccn1` (single isomer, unassigned) [Example 2-14-89-1, 6-(7-((1-(4-chloropyridin-2-yl)ethyl)amino)-9H-xanthen-4-yl)-4-morpholinopyridin-2(1H)-one] was 0.1 to 0.5 µM.
The value for `COc1cncc(C(C)Nc2ccc3c(c2)Cc2cccc(-c4cc(N5CCOCC5)cc(=O)[nH]4)c2O3)c1` (racemic) [Example 2-11-2, 6-(7-((1-(5-Methoxypyridin-3-yl)ethyl)amino)-9H-xanthen-4-yl)-4-morpholinopyridin-2(1H)-one] was 0.1 to 0.5 µM; that for `Cc1cncc(CNc2ccc3c(c2)Cc2cccc(-c4cc(N5CCOCC5)cc(=O)[nH]4)c2O3)n1` [Example 2-14-74, 6-(7-(((6-Methylpyrazin-2-yl)methyl)amino)-9H-xanthen-4-yl)-4-morpholino pyridin-2(1H)-one] was 0.1 to 0.5 µM.
On to `O=c1cc(N2CCOCC2)cc(-c2cccc3c2Oc2cccc(N4CCOCC4)c2C3)[nH]1` [Example 2-60, 4-Morpholino-6-(8-morpholino-9H-xanthen-4-yl)pyridin-2(1H)-one], for which the IC50 lay in the range of 0.1 to 0.5 µM.
With `COC[C@H](CN(C(C)C)C(C)C)Nc1ccc2c(c1)Sc1cccc(-c3cc(N4CCOCC4)cc(=O)[nH]3)c1S2` [Example 1-46-14, (S)-6-(7-((1-(Diisopropylamino)-3-methoxypropan-2-yl)amino)thianthren-1-yl)-4-morpholino pyridin-2(1H)-one], the IC50 lay in the range of 0.1 to 0.5 µM.
Under `CNCC(Nc1ccc2c(c1)Sc1cccc(-c3cc(N4CCOCC4)cc(=O)[nH]3)c1S2)c1cccc(C)n1` (single isomer, unassigned) [Example 1-19-4-1, 6-(7-((2-(Methylamino)-1-(6-methylpyridin-2-yl)ethyl)amino)thianthren-1-yl)-4-morpholinopyridin-2(1H)-one] stands 0.1 to 0.5 µM; under `O=c1cc(N2CCOCC2)cc(-c2cccc3c2Sc2ccc(NC4CCN(C5CCCC5)C4)cc2S3)[nH]1` (centres unmarked) [Example 1-24-12, 6-(7-((1-Cyclopentylpyrrolidin-3-yl)amino)thianthren-1-yl)-4-morpholino pyridin-2(1H)-one], 0.1 to 0.5 µM.

Values taken from patent publication US9586951B2 (FUJIFILM Corporation, priority 2013, dated 2017).
